Patent EP1800684A1, “Novel alkyl phospholipid derivatives and uses thereof” (Zentaris GmbH, priority 2005, dated 2007)
Converted amounts (≈) assume the structure as drawn. Where two headings read alike, the source gives them in different places.

Key:
Assay type in all cases: cell-based
[1] = test system: Aspergillus fumigatus (ATCC 204305); test: Anti-fungal susceptibility test (microdilution), fungus H
Experimental: (§1) The antifungal activities of the test compounds (compounds of the invention and known prior art compounds) were measured according to standard microdilution methods (Cryptococcus/Aspergillus: Ghannoum et al., Journal of Clinical Microbiology 1992, 30 (11): 2881-2886; Candida: Reference method for broth dilution susceptibility testing of yeast: proposed standard, NCCLS document M27-P, National Committee for Clinical Laboratory Standards 1992, Villanova, Pa).
(§2) A serial dilution series starting from 64 µg/mL test compound per well down to 0.125 µg/mL test compound per well was applied for each test compound on each fungus. The MIC of each compound was defined as the concentration which produces no visible growth after 48 hours (Candida) and 72 hours (Cryptococcus, Aspergillus) of culture at 35° C.
(§3) The following fungi were assessed: • A) Candida albicans (ATCC 10231) • B) Candida albicans (ATCC 90028) • C) Candida albicans (strain TS3, Shrikantha et al., Journal of Bacteriology 2000, 182(6):1580-1591) • D) Candida parapsilosis (ATCC 22019) • E) Cryptocoocus neoformans (ATCC 90112) • F) Cryptocoocus neoformans (strain H99; Ganendren et al., Antimicrobial Agents and Chemotherapy, 2004, 48(5):1561-1569) • G) Cryptocoocus gattii (ATCC 32608) • H) Aspergillus fumigatus (ATCC 204305) • I) Aspergillus fumigatus (strain 322-384)

[2] = test system: Candida albicans (strain TS3); test: Anti-fungal susceptibility test (microdilution), fungus C; conditions: no visible growth after 48 hours at 35° C
Experimental: as §1, §2, §3

[3] = test system: Aspergillus fumigatus (strain 322-384); test: Anti-fungal susceptibility test (microdilution), fungus I; conditions: no visible growth after 72 hours at 35° C
Experimental: as §1, §2, §3

[4] = test system: Trypanosoma brucei rhodesiense (strain STIB900); test: In vitro drug activity assay, protozoon B (bloodstream form trypomastigotes, Alamar Blue); conditions: incubated for 72 hours
Experimental: Trypanosoma brucei rhodesiense STIB900 bloodstream form trypomastigotes were maintained in HMI-18 medium (Hirumi H, Hirumi K, J Parasitol. 1989, 75(6):985-989) with 15% heat-inactivated fetal calf serum at 37°C, 5% CO2, humidified atmosphere. Trypomastigotes were washed and resuspended in fresh medium at a concentration of 2 x 10^5 mL. Test compounds were given to the trypomastigotes and plates were incubated for 72 hours at 37°C, 5% CO2, humidified atmosphere. At 72 hours the plates were assessed microscopically before Alamar Blue was added (Raz et al., Acta Trop. 1997, 68: 139-147). Plates were read after 5 to 6 hours at EX/EM 530/585 nm with a filter cutoff at 550 nm. ED50 values were calculated with Msxlfit (IDBS).
(§4) The following protozoa were assessed: • A) Trypanosoma cruzi (Tulahuan-LACZ amstigotes in PEM, Lorente SO et al., Antimicrobial agents and chemotherapy 2004, 48(8): 2937-2950; Buckner et al., Infection and Immunity 1999, 67(1): 403-409; Buckner et al., Antimicrobial Agents and Chemotherapy 1996, 40(11): 2592-2597) • B) Trypanosoma brucei rhodesiense (strain STIB900, Lorente SO et al., Antimicrobial agents and chemotherapy 2004, 48(8): 2937-2950; Habtemariam S, BMC Pharmacology 2003, 3:6) • C) Plasmodium falciparum (strain K1, Korsinczky M et al., Antimicrobial agents and chemotherapy 2000, 44(8): 2100-2108; Thaitong S and Beale GH, Trans. R. Soc. Trop. Med. Hyg. 1981, 75: 271-273; Trager W and Jensen JB, Science 1976, 193: 673-675) • D) Plasmodium falciparum (strain 3D7, Mu et al., PLoS Biology 2005, 3(10): e335)

[5] = test system: Candida albicans (ATCC 90028); test: Anti-fungal susceptibility test (microdilution), fungus B
Experimental: as §1, §2, §3

[6] = test system: Cryptocoocus neoformans (ATCC 90112); test: Anti-fungal susceptibility test (microdilution), fungus E
Experimental: as §1, §2, §3

[7] = test system: Cryptocoocus gattii (ATCC 32608); test: Anti-fungal susceptibility test (microdilution), fungus G; conditions: fungus G; no visible growth after 72 hours at 35° C; read-out: MIC
Experimental: as §1, §2, §3

[8] = test system: Candida albicans (ATCC 10231); test: Anti-fungal susceptibility test (microdilution), fungus A
Experimental: as §1, §2, §3

[9] = test system: Trypanosoma cruzi (Tulahuan-LACZ amstigotes in PEM); test: In vitro drug activity assay, protozoon A (amastigotes in murine peritoneal macrophages, CPRG readout); conditions: infected macrophages exposed for 3 days
Experimental: Murine (CD1) peritoneal macrophages were harvested 24 hours after starch induction and dispensed into 96-well plates at a concentration of 4 x 10^5 mL. After 24 hours, the cells were infected with Trypanosoma cruzi Tulahuan LAC-Z amastigotes (grown and cultured according to Buckner et al., Infection and Immunity 1999, 67(1): 403-409). 24 hours later, the infected cells were exposed to the test compounds (compounds of the invention as well as known prior art compounds) for 3 days and 50 µL of 500 µM CPRG-1% Nonidet P-40 was added to each well. The plates were read after 2 to 5 hours at 570 nm (Buckner et al., Antimicrobial Agents and Chemotherapy 1996, 40(11): 2592-2597). ED50 values were calculated with Msxlfit (IDBS).
as §4

[10] = test system: Plasmodium falciparum (strain 3D7); test: In vitro drug susceptibility assay, protozoon D (3[H]-hypoxanthine method)
Experimental: (§5) Plasmodium falciparum strain K1 and strain 3D7 parasites were cultured according to Trager W and Jensen JB (Science 1976, 193: 673-675). In vitro drug susceptibility assays with the test compounds were carried out according to Korsinczky M et al. (Antimicrobial agents and chemotherapy 2000, 44(8): 2100-2108) and Fivelman QL et al. (Antimicrobial agents and chemotherapy 2004, 48(11): 4097-4102) using a ^3[H]-hypoxanthine radioisotope method. ED50 values were calculated with Msxlfit (IDBS).
as §4

[11] = test system: Candida parapsilosis (ATCC 22019); test: Anti-fungal susceptibility test (microdilution), fungus D
Experimental: as §1, §2, §3

[12] = test system: Cryptocoocus neoformans (strain H99); test: Anti-fungal susceptibility test (microdilution), fungus F; conditions: fungus F; no visible growth after 72 hours at 35° C; read-out: MIC
Experimental: as §1, §2, §3

[13] = test system: Plasmodium falciparum (strain K1); test: In vitro drug susceptibility assay, protozoon C (3[H]-hypoxanthine method)
Experimental: as §5, §4

[14] = test system: KB/HeLa (ATCC CCL17, human cervix carcinoma); test: XTT cytotoxicity assay, KB/HeLa cells; conditions: 48 h, 2 days of continuous drug exposure
Experimental: (§6) Human tumor cell lines KB/HeLa (ATCC CCL17, human cervix carcinoma), PC3 (ATCC CRL1435, human prostate carcinoma) and RKOp21 (human colon adenocarcinoma) cells were used in an automated XTT screening assay for the assessment of cytotoxicity.
(§7) The XTT assay quantifies cellular metabolic activity which correlates with cell viability and cell number. Test compounds (selected compounds of the invention and known substances as controls) are dissolved in culture medium at 600µM and added to the tumor cells in 10 different concentrations in a semi-logarithmic fashion starting from 100 µM as highest concentration.
(§8) 48h later cellular metabolic activity of cells treated with test compounds is quantified by measurement of the absorbance at 490nm (conversion of XTT dye) in comparison to untreated control cells (100% viability).
(§9) KB/HeLa and PC3 cells were cultivated in RPMI medium supplemented with 10% heat inactivated fetal calf serum, 2 mM glutamine, 100 U/ml penicillin, and 100 µg/ml streptomycin. RKOp21 cells were grown in DMEM supplemented with 10% heat inactivated fetal calf serum, 2 mM glutamine, 100 U/ml penicillin, and 100 µg/ml streptomycin. All cells were cultured at 37°C in 5% CO2 humidified air.
(§10) On the first day of the experiment cells were harvested from exponential phase cultures by trypsination, counted and plated into 96 well flat-bottom micro titer plates depending on the cell line as listed below:
(§11) After a 24h recovery to allow the cells to resume exponential growth, the test compounds were diluted immediately prior to use and transferred in 25µl volume to the wells.
(§12) Following 2 days of continuous drug exposure 50µl of freshly prepared XTT-PMS solution (2% […] PMS in PBS + 98% 1 mg/ml XTT in RPMI 1640 without phenol red) was added to the wells. To measure the proportion of living cells, the cells were incubated for 3 h with XTT-PMS reagent at 37°C, 5% CO2, humidified atmosphere allowing to form the formazan salt. The amount of soluble formazan salt produced by cellular reduction of XTT is quantified by measuring the absorbance at 490nm using the Biomek® 2000 ELISA plate reader.
(§13) %-inhibition (cytotoxicity) of each test compound was calculated in relation to untreated control cells. Inhibition curves were generated and IC50 values calculated by using GraphPad Prism.

[15] = test system: PC3 (ATCC CRL1435, human prostate carcinoma); test: XTT cytotoxicity assay, PC3 cells; conditions: PC-3, 48 h, 2 days of continuous drug exposure
Experimental: as §6, §7, §8, §9, §10, §11, §12, §13

[16] = test system: RKOp21 (human colon adenocarcinoma) cells; test: XTT cytotoxicity assay, RKOp21 cells; conditions: 48 h, 2 days of continuous drug exposure
Experimental: as §6, §7, §8, §9, §10, §11, §12, §13

[17] = Aspergillus fumigatus, ATCC204305, no visible growth after 72 hours at 35° C, read-out: MIC
[18] = Candida albicans, read-out: MIC
[19] = Aspergillus fumigatus, read-out: MIC
[20] = Candida albicans, ATCC90028, no visible growth after 48 hours at 35° C, read-out: MIC
[21] = fungus E, no visible growth after 72 hours at 35° C, read-out: MIC
[22] = Candida albicans, ATCC10231, no visible growth after 48 hours at 35° C, read-out: MIC
[23] = ATCC22019, no visible growth after 48 hours at 35° C, read-out: MIC
[24] = no visible growth after 48 hours at 35° C

CCCCCCCCCCCCCCCCOP(=O)([O-])OC1CC[N+](C)(Cc2ccccc2)CC1 (stereo not drawn) [Compound 1, Phosphoric acid 1-benzyl-1-methyl-piperidin-4-yl ester hexadecyl ester]
MIC [1, 17]: 2 µg/mL (≈ 3.92 µM) | MIC [2, 18]: 1.5 µg/mL (≈ 2.94 µM) | MIC [3, 19]: 2 µg/mL (≈ 3.92 µM) | ED50 (µg/mL) [4]: 18,80 µg/mL | MIC [5, 20]: 1 µg/mL (≈ 1.96 µM) | MIC [6, 21]: 1.5 µg/mL (≈ 2.94 µM) | MIC [7]: 1 µg/mL (≈ 1.96 µM) | MIC [8, 22]: 2 µg/mL (≈ 3.92 µM) | ED50 (µg/mL) [9]: 1,71 µg/mL | ED50 (µg/mL) [10]: 9,97 µg/mL | MIC [11, 23]: 3 µg/mL (≈ 5.89 µM) | MIC [12]: 2 µg/mL (≈ 3.92 µM) | ED50 (µg/mL) [13]: 6,93 µg/mL

CCCCCCCCCCCCCCCCOP(=O)([O-])OC1CC[N+](C)(CCc2ccccc2)CC1 (stereo not drawn) [Compound 4, Phosphoric acid 1-methyl-1-phenethyl-piperidin-4-yl ester hexadecyl ester]
ED50 (µg/mL) [4]: 12,29 µg/mL | ED50 (µg/mL) [10]: 15,32 µg/mL | ED50 (µg/mL) [13]: 5,44 µg/mL

CCCCCCCCCCCCCCCCOCCCOP(=O)([O-])OCC[N+](C)(C)C [Compound 8, Phosphoric acid 3-hexadecyloxy-propyl ester 2-trimethylammonium-ethyl ester]
MIC [1, 17]: 2 µg/mL | MIC [2, 18]: 1 µg/mL | MIC [3, 19]: 2 µg/mL | MIC [5, 20]: 0.75 µg/mL | MIC [6, 21]: 2 µg/mL | MIC [7]: 0.75 µg/mL | MIC [8, 22]: 0.75 µg/mL | MIC [11, 23]: 0.75 µg/mL | MIC [12]: 1.5 µg/mL

CCCCCCCC/C=C\CCCCCCCCCCCCOP(=O)([O-])OC1CC[N+](C)(C)CC1 [Compound 17, Phosphoric acid 1,1-dimethyl-piperidin-4-yl ester (Z)-docos-13-enyl ester]
IC50 [14]: 16.6 µM | IC50 [15]: 18.3 µM | IC50 [16]: 32.5 µM

CCCCCCCC/C=C\CCCCCCCCOP(=O)(O)OCCN1CCCCC1 [Compound 19, Phosphoric acid (Z)-octadec-9-enyl ester 2-piperidin-1-yl-ethyl ester]
IC50 [14]: > 100 µM | IC50 [15]: > 100 µM | IC50 [16]: > 100 µM

CCCCCCCCCCOCCOCCOP(=O)([O-])OCC[N+]1(C)CCCCC1 [Compound 20, Phosphoric acid 2-(2-decyloxy-ethoxy)-ethyl ester 2-(1-methylpiperidin-1-yl)-ethyl ester]
IC50 [14]: > 100 µM | IC50 [15]: > 100 µM | IC50 [16]: > 100 µM

CCCCCCCCCCCCCCCCCCOP(=O)([O-])OCC[As+](C)(C)C [Compound 22]
MIC ([1]; no visible growth after 72 hours at 35° C): 4 µg/mL | MIC [2]: 1 µg/mL | MIC [3]: 2 µg/mL | MIC [5, 24]: 1 µg/mL | MIC [8, 24]: 0.5 µg/mL | MIC [11, 24]: 1 µg/mL

CCCCCCCC/C=C\CCCCCCCCCCCCOP(=O)([O-])OCC[N+](C)(C)C [ErPC, (13Z)-docosenylphosphocholine, reference compound]
MIC [1, 17]: > 64 µg/mL | MIC [2, 18]: > 64 µg/mL | MIC [3, 19]: > 64 µg/mL | MIC [5, 20]: > 64 µg/mL | MIC ([6]; 72 h): 4 µg/mL (≈ 8.17 µM) | MIC [7]: 1.5 µg/mL (≈ 3.06 µM) | MIC [8, 22]: > 64 µg/mL | MIC [11, 23]: > 64 µg/mL | MIC [12]: 3 µg/mL (≈ 6.13 µM)

O=C(Cn1ccnc1[N+](=O)[O-])NCc1ccccc1 [benznidazole, Benznidazole, reference compound]
ED50 (µg/mL) [9]: 0,22 µg/mL

CCCCCCCCCCCCCCCCOP(=O)([O-])OCC[N+](C)(C)C [miltefosine, reference compound]
IC50 [14]: 8.66 µM | ED50 (µg/mL) [9]: 0,63 µg/mL | IC50 [15]: 9.39 µM | IC50 [16]: 18 µM

CCCCCCCCCCCCCCCCCCOP(=O)([O-])OC1CC[N+](C)(C)CC1 [perifosine, octadecyl-1,1-dimethyl-piperidino-4-yl-phosphate, reference compound]
IC50 [14]: 2.37 µM | IC50 [15]: 3.22 µM | IC50 [16]: 3.31 µM
